# pIC50: −log10 of the molar value. Active and inactive are the calls of the source. The calls are words filed in the database; no cut-off is given here.
# Columns and labels:
# [1] = Antiproliferative activity against human TR-146 cells assessed as reduction in cell viability measured after 48 hrs by alamar blue dye based spectrofluorometry; type: functional; conditions: TR146, 48 h
# [2] = molecular target: T1, Histone deacetylase 8 (Homo sapiens, UniProt Q9BY41); assay: Inhibition of human recombinant HDAC8 expressed in Escherichia coli using Fluor de Lys substrate preincubated for 15 mins followed by substrate addition and measured after 60 mins by fluorescence assay
# T1 sequence (Q9BY41 whole entry): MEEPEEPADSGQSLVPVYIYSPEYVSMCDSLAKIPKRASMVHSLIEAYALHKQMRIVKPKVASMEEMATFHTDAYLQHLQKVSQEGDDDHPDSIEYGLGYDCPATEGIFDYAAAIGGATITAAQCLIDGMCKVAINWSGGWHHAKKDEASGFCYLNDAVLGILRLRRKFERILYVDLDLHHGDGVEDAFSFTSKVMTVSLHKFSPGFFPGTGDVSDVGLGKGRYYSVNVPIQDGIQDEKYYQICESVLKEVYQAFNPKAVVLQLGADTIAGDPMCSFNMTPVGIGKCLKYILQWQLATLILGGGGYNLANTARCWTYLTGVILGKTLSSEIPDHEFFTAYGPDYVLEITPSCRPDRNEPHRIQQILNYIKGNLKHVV
# [3] = molecular target: T2, Histone deacetylase 1 (Homo sapiens, UniProt Q13547); assay: Inhibition of full length C-terminal His/FLAG-tagged human HDAC1 expressed in baculovirus expression system using ZMAL as substrate incubated for 90 mins by fluorescence assay
# T2 sequence (Q13547 whole entry): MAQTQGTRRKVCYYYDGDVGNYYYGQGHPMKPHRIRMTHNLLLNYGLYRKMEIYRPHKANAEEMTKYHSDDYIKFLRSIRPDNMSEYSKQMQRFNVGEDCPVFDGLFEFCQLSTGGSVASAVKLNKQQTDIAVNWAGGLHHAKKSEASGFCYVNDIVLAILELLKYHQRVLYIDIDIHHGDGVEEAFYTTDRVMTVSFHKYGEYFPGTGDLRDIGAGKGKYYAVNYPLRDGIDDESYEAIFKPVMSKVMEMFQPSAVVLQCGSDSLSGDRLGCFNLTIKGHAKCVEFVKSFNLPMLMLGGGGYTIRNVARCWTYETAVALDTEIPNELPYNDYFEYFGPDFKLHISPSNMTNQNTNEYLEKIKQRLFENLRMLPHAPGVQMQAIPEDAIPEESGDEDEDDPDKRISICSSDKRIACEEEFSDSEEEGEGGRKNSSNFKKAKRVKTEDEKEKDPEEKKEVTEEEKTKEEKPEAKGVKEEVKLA
# [4] = system: Ca9-22; assay: Antiproliferative activity against human Ca9-22 cells assessed as reduction in cell viability measured after 48 hrs by alamar blue dye based spectrofluorometry; type: functional; conditions: Ca9-22, 48 h
# [5] = molecular target: T3, Protein deacetylase HDAC6 (Homo sapiens, UniProt Q9UBN7); assay: Inhibition of full length N-terminal GST-tagged human HDAC6 expressed in baculovirus expression system using ZMAL as substrate incubated for 90 mins by fluorescence assay
# T3 sequence (Q9UBN7 whole entry): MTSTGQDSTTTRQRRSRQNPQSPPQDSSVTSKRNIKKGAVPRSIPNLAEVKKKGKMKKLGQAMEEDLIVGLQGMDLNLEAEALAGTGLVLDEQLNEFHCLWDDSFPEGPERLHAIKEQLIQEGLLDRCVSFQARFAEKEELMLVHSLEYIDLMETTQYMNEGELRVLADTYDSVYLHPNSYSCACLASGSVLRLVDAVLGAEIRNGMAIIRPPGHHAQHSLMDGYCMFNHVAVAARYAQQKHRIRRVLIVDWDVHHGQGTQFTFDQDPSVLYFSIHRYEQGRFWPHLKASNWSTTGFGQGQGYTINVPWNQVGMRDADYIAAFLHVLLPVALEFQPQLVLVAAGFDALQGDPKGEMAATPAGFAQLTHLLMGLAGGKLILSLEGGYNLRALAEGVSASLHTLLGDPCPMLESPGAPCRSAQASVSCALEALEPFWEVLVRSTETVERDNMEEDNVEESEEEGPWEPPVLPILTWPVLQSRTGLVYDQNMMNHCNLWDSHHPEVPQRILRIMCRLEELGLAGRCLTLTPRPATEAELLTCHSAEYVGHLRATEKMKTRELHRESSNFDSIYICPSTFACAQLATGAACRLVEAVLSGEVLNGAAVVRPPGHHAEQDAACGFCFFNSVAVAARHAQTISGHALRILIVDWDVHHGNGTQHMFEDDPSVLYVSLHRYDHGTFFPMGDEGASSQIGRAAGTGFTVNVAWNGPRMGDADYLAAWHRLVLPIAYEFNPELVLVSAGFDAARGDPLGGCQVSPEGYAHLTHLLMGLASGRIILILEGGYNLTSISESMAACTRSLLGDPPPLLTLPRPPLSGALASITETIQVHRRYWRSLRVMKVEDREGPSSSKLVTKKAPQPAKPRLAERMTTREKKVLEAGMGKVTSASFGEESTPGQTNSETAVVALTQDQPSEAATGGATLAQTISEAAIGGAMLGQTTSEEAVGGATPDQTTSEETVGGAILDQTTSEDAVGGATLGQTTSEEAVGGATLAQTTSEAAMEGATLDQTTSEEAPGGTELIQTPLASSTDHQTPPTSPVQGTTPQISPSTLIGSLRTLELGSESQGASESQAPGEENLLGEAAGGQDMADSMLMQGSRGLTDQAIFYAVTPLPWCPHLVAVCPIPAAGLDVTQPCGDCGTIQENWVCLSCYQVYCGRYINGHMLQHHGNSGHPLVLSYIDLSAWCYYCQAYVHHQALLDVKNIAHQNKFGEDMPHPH
# [6] = species: Homo sapiens; assay: Selectivity ratio of IC50 for full length C-terminal His/FLAG-tagged human HDAC1 expressed in baculovirus expression system to IC50 full length N-terminal GST-tagged human HDAC6 expressed in baculovirus expression system
# [7] = Antiproliferative activity against human U266B cells assessed as reduction in cell viability measured after 24 to 48 hrs by alamar blue dye based fluorescence assay; type: functional
# [8] = system: U266B; assay: Induction of apoptosis in human U266B cells at 25 to 50 uM measured after 48 hrs by Annexin-V/propidium iodide staining based flow cytometry; type: functional, cell-based; conditions: dose microM 25-50, time 48.0 hrs
# [9] = system: NB-4; assay: Induction of apoptosis in human NB-4 cells assessed as increase in cleaved PARP expression at 10 uM measured after 24 to 48 hrs by Western blot analysis; type: functional, cell-based; conditions: time hrs 24-48
# [10] = molecular target: T4, Protein deacetylase HDAC6 (Homo sapiens) (UniProt Q9UBN7); assay: Inhibition of HDAC6 in human U-266 cells assessed as reduction in STAT3 phosphorylation measured after 4 to 48 hrs by immunoblot assay; type: cell-based; conditions: time hrs 4-48
# T4 sequence (whole entry): T3 sequence (Q9UBN7 whole entry)
# [11] = Mutagenicity in Salmonella typhimurium TA100 at 24 to 40 uM measured after 90 mins in absence of S9 fraction by Ames test; type: toxicity; conditions: salmonella enterica subsp. enterica serovar typhimurium, s9, 1.5 h, dose 24-40 µM
# [12] = system: U-937; assay: Cell cycle arrest in human U-937 cells assessed as increase in accumulation at pre-G1 phase at 10 uM measured after 48 hrs by propidium iodide staining based flow cytometry; type: functional
# [13] = system: OE33; assay: Antiproliferative activity against human OE33 cells assessed as reduction in cell viability measured after 72 hrs by MTT assay; type: functional, cell-based; conditions: OE33, 72 h
# [14] = molecular target: T4, Protein deacetylase HDAC6 (Homo sapiens); assay: Inhibition of HDAC6 in human NB-4 cells assessed as increase in tubulin acetylation at 10 uM measured after 24 to 48 hrs by Western blot analysis; type: cell-based; conditions: time hrs 24-48
# [15] = system: Histone deacetylase; assay: Inhibition of HDAC in human NB-4 cells assessed as effect on histone acetylation at 10 uM measured after 24 to 48 hrs by Western blot analysis; type: cell-based; conditions: nb-4, 10 µM, time 24-48 hrs
# [16] = molecular target: T4, Protein deacetylase HDAC6 (Homo sapiens); assay: Inhibition of HDAC6 in human MEC1 cells assessed as reduction in STAT3 phosphorylation measured after 30 hrs by immunoblot assay; type: cell-based
# [17] = system: NB-4; assay: Cell cycle arrest in human NB-4 cells at 5 to 10 uM measured after 48 hrs by propidium iodide staining based flow cytometry; type: functional; conditions: dose microM 5-10, time 48.0 hrs
# [18] = Cytotoxicity against mouse NIH3T3 cells assessed as reduction in cell viability measured after 24 hrs by neutral red uptake assay; type: cell-based; conditions: read-out: TC50
# [19] = Mutagenicity in Salmonella typhimurium TA100 at 24 to 40 uM measured after 90 mins in presence of S9 fraction by Ames test; type: toxicity, subcellular; conditions: salmonella enterica subsp. enterica serovar typhimurium, s9, 1.5 h, dose 24-40 µM
# [20] = molecular target: T2, Histone deacetylase 1; assay: Inhibition of full length C-terminal His/FLAG-tagged human HDAC1 expressed in baculovirus expression system at 1 uM using ZMAL as substrate incubated for 90 mins by fluorescence assay relative to control
# [21] = molecular target: T4, Protein deacetylase HDAC6 (Homo sapiens); assay: Inhibition of full length N-terminal GST-tagged human HDAC6 expressed in baculovirus expression system at 1 uM using ZMAL as substrate incubated for 90 mins by fluorescence assay relative to control
# [22] = system: NB-4; assay: Cell cycle arrest in human NB-4 cells at 5 to 10 uM measured after 24 to 48 hrs by propidium iodide staining based flow cytometry; type: functional; conditions: dose microM 5-10, time hrs 24-48
# [23] = system: KYSE-520 cell line; assay: Antiproliferative activity against human KYSE520 cells assessed as reduction in cell viability measured after 48 hrs by alamar blue dye based spectrofluorometry; type: functional; conditions: KYSE-520, 48 h
pIC50 [2],pIC50 [3],pIC50 [5],Ratio IC50 [6],inhibition [14],inhibition (INH) [15],inhibition [20] [%],inhibition [21] [%],Compound,pIC50 [1],pIC50 [4],pIC50 [7],Activity [9],pIC50 [13],further results
5.61,5.44,6.96,33,,,,,O=C(NO)c1ccc(CNC(=O)N2CCC3(CC2)CN(Cc2ccccc2)c2ccccc23)cc1,< 3.00,4.26,4.23,,,
5.50,5.17,7.31,140,Active,Not Active,,,O=C(NO)c1ccc(COC(=O)N2CCC3(CC2)CN(Cc2ccccc2)c2ccccc23)cc1,3.88,< 3.00,4.69,Active,4.42,Activity [8]: Active; inhibition [10]: Dose-dependent effect; Activity [11]: Toxic; Activity [12]: Active; inhibition [16]: Dose-dependent effect; Activity [17]: Active; CC50 at 24 h [18]: 40 µM; Activity [19]: Toxic
,,,,,,2.9,29.7,O=C(NO)c1ccc(CN2CCC3(CC2)CN(Cc2ccccc2)c2c(-c4ccccc4)cccc23)cc1,,,,,,
,,,,,,6.6,51.3,CN1CC2(CCN(Cc3ccc(C(=O)NO)s3)CC2)c2cccc(-c3ccccc3)c21,,,,,,
,4.99,6.64,45,Active,Not Active,,,O=C(NO)c1ccc(CC(=O)N2CCC3(CC2)CN(Cc2ccccc2)c2ccccc23)cc1,4.27,< 3.00,,Active,4.86,Activity [22]: Active; pIC50 [23]: 4.47
,5.33,6.33,10,,,,,O=C(NO)c1ccc(CN2CCC3(CC2)CN(C(=O)c2ccccc2)c2c(-c4ccccc4)cccc23)cc1,,,,,,
